Data set [1] relates to Human fibroblasts, Detroit 551 ATCC CCL III. Description: MTT cytotoxicity test on fibroblasts. Conditions: positive control, 0.5 mg/ml SDS. In kind it is cell-based. The source says: (§1) For this purpose the cell viability test using MTT (3-[4,5-dimethylthiazol-2-yl]-2,5-diphenyl tetrazolium bromide) [Mossman 1993] a colourimetric reagent, by means of which it is possible to distinguish between living, damaged or dead cells, being thus predictive of the safety of use of test substances, even “in vivo”, has been selected.
(§2) The following have been used: • human fibroblasts, Detroit 551 ATCC CCL III from LGC Promochem (Milan, Italy); • primary culture of human keratinocytes (HEKA), Cascade Biologics, cat.-005-5c.
(§3) In the study in question, CA has been previously dissolved and brought into contact with the selected cell cultures in such a manner as to directly reach the desired concentrations, i.e.: […]
(§4) As already mentioned, the key reagent is MTT, a yellow-coloured substance in aqueous solution which, when acted-on by the mitochondrial dehydrogenases present in viable cells, is transformed into purple crystals, insoluble in water, but soluble in acidified isopropanol. The absorbance of the resulting purple solution at […] is used as an indicator of the level of cytotoxicity of the substances under test.
(§5) In operational terms, the key reagent is prepared by adding 15 mg of MTT to 30 ml of culture medium. […] The plates are shaken for 20-30 minutes until a homogenous solution is formed, the absorbance of which is then read at […] with a background reading at 670 nm. […]
(Tetrazolium assays rely on reduction of a dye to a coloured formazan, in cell work by metabolically active cells.)

Data set [2] has as its system primary culture of human keratinocytes (HEKA). Description: MTT cytotoxicity test on keratinocytes. In kind it is cell-based. The conditions noted are these: positive control, 0.5 mg/ml SDS.
Text: as §1, §2, §3, §4, §5

The conditions of data set [3]: exogenous hyaluronic acid, non cross-linked; cited from earlier work.
Data set [4] relates to mouse skin fibroblasts. Conditions: addition of HA to primary cultures; cited from earlier work.
In data set [5] the test system is extracellular matrix metalloproteases. The conditions noted are these: HA 1 mg/ml; cited from earlier work.
For data set [6], the system named is Human fibroblasts, Detroit 551 ATCC CCL III. The experiment in a line: Stimulation of HA synthesis in human fibroblast cultures (EIA HA assay). The conditions noted are these: 48 h. The data set is classed as cell-based. The text has this:
The test has been conducted in two stages, i.e.: • stage A: in which the stimulation of HA expression by COMBI has been evaluated while maintaining the concentration constant and varying the reciprocal quantities of its components. The concentration used has been selected so as to enable comparison with the results derived from stage B; • stage B: in which the effect of CA on HA expression has been evaluated by varying its concentration and in comparison with doses consistent with its components. […] Human fibroblasts have been grown in suitable growth medium (Eagle's minimal essential medium) supplemented with 10% foetal calf serum (FCS), 1 mM sodium pyruvate, 2 mM glutamine, non-essential aminoacids and 50 μg/ml glutamycin. […] After 48 hours, the supernatant has been removed and used for the determination of the parameters of interest. The test has been conducted in duplicate and untreated cell cultures have been used as controls. HA has been assayed (dosed) by means of an immuno-enzymatic test using a commercially available kit (EIA, Corgenix). De novo HA synthesis has been evaluated in the culture medium following treatment with the test substances, according to the protocol provided with the test, and against the calibration curve obtained using the HA standard contained in the kit. […] • evaluation of the effects of the substances tested, at the various concentrations, on fibroblast cultures has been expressed as the absolute and percent increase or decrease of the HA expression, with respect to the corresponding control culture, after 48 hours of incubation. The percentage difference increase or decrease of the effects exerted by CA and NAG, at corresponding concentrations, have then been calculated, with evaluation of their potential significance by means of the Student's “t” test.

The test system is the same in data set [7]. The experiment in a line: Stimulation of collagen synthesis in human fibroblast cultures (Sircol assay). In kind it is cell-based. The conditions noted are these: 24 h. The source says: The scope of the test has been the evaluation and the comparison of the potential stimulation exerted by the test substances on the expression of collagen and elastin in “in vitro” cultures of skin-derived cells, such as fibroblasts. The test in question, even though conducted “in vitro”, can be considered to be predictive of the effects of use of the same substances “in vivo”. […] The samples have been dissolved directly in the culture medium. Each sample has been tested in duplicate and the experiments have been repeated twice. The parameters of interest have been determined after 24 hours on separate plates. Untreated cell cultures have been used as controls. A commercially available kit (Sircol™, biodye science) which uses the capacity of the stain Sirius Red to interact with the basic side chains of the aminoacids present in collagen itself, has been used for collagen assays. De novo collagen synthesis has been evaluated in the culture medium following treatment with the test substances, following the protocol provided with the kit, and by using the calibration curve obtained employing the collagen standard contained in turn in the kit. Evaluation of the effects of the substances tested, at the various concentrations, on fibroblast cultures, has been expressed as the absolute and percent increase or decrease of collagen and elastin expression, with respect to the corresponding control culture, after 24 hours of incubation. The percentage difference increase or decrease of the effects exerted by CA and NAG, at corresponding concentrations, have then been calculated, with consequent evaluation of their potential statistical significance by means of the test Student “t” test.

Data set [8] shares this test system. The experiment in a line: Stimulation of elastin synthesis in human fibroblast cultures (Fastin assay). Conditions: 24 h. The data set is classed as cell-based. The text has this: The scope of the test has been the evaluation and the comparison of the potential stimulation exerted by the test substances on the expression of collagen and elastin in “in vitro” cultures of skin-derived cells, such as fibroblasts. The test in question, even though conducted “in vitro”, can be considered to be predictive of the effects of use of the same substances “in vivo”.
Human fibroblasts, Detroit 551 ATCC CCL III from LGC Promochem (Milan, Italy) have been used.
The substances and concentrations tested have been the same as those already described for stage B of the test on the stimulation of HA expression, i.e.: • CA: 0.66, 1.32, 1.98, 2.64 and 3.3 mg/ml • NAG: 0.5, 1.0, 1.5, 2.0 and 2.5 mg/ml • ASS: 0.16, 0.32, 0.48, 0.64 and 0.80 mg/ml
Cells have been plated out in 96 well plates, 2500 cells/well for 24 hours in cell growth medium ([…], DMEM)+10% foetal calf serum (FCS). Fresh culture medium, enriched with just 5% FCS and containing the substances to be tested, so as to reach the final concentrations desired, has then been added. The samples have been dissolved directly in the culture medium. Each sample has been tested in duplicate and the experiments have been repeated twice. The parameters of interest have been determined after 24 hours on separate plates. Untreated cell cultures have been used as controls.
Elastin has been assayed using a commercially available test (Fastin™, biodye science). The assay is based on the interaction of 5,10,15,20-tetraphenyl-21,23-porphyrin with elastin molecules.
De novo elastin synthesis has been evaluated in the culture medium following treatment with the test substances, following the protocol provided with the test, and by using the calibration curve obtained employing the elastin standard contained in the kit itself.
Evaluation of the effects of the substances tested, at the various concentrations, on fibroblast cultures, has been expressed as the absolute and percent increase or decrease of collagen and elastin expression, with respect to the corresponding control culture, after 24 hours of incubation.
The percentage difference increase or decrease of the effects exerted by CA and NAG, at corresponding concentrations, have then been calculated, with consequent evaluation of their potential statistical significance by means of the test Student “t” test.

On to `CCCCCCCCCCCCOS(=O)(=O)[O-].[Na+]` [SDS, sodium dodecylsulphate], for which the cell mortality in data set [1] was 96.05%. Besides, in data set [2], the “mortality of the keratinocyte culture” value came to 94.28%.
For the compound Hyaluronic acid [HA], the “half-life in the skin” value in data set [3] is recorded as “less than 24 hours”. Besides, in data set [4], the “effect on DNA synthesis” value is given as “causes transient DNA synthesis”. Also, the “expression of extracellular matrix metalloproteases” value in data set [5] is listed as “clear increase”.
anhydrous sodium sulphate [ASS]: the “HA (%) (Diff. from baseline)” value in data set [6] (ASS 0.16 mg/ml) is reported as “+6.07%”; in data set [6] (ASS 0.32 mg/ml), “+7.99%”; in data set [6] (ASS 0.48 mg/ml), “+9.38%”; in data set [6] (ASS 0.64 mg/ml) it was −25.87%; in data set [6] (ASS 0.80 mg/ml), “+1.91%”. Also, the “HA(ng/well) (Diff. from baseline)” value in data set [6] (ASS 0.16 mg/ml) was 35 ng/well; in data set [6] (ASS 0.32 mg/ml), 46 ng/well; in data set [6] (ASS 0.48 mg/ml), 54 ng/well; in data set [6] (ASS 0.64 mg/ml), −149 ng/well; in data set [6] (ASS 0.80 mg/ml) it was 11 ng/well. In addition, the “effect on HA expression (in words)” value in data set [6] (ASS alone 0.16-0.80 mg/ml) is “exerts no stimulation nor inhibition”. Besides, the “Collagen (%) (Diff. from baseline)” value in data set [7] (ASS 0.16 mg/ml) is recorded as −8.45%; in data set [7] (ASS 0.32 mg/ml), “+3.93%”; in data set [7] (ASS 0.48 mg/ml), “+1.77%”; in data set [7] (ASS 0.64 mg/ml), “+9.03%”; in data set [7] (ASS 0.80 mg/ml), −3.34%. The “Collagen(μg/ml) (Diff. from baseline)” value in data set [7] (ASS 0.16 mg/ml) is -0.43 µg/mL; in data set [7] (ASS 0.32 mg/ml), “+0.20 μg/ml”; in data set [7] (ASS 0.48 mg/ml), “+0.09 μg/ml”; in data set [7] (ASS 0.64 mg/ml), “+0.46 μg/ml”; in data set [7] (ASS 0.80 mg/ml), -0.17 µg/mL. In addition, the “effect on collagen expression (in words)” value in data set [7] (ASS alone 0.16-0.80 mg/ml) is reported as “exerts no type of stimulation or inhibition”. Further, the “Elastin (%) (Diff. from baseline)” value is −2.33% in data set [8] (ASS 0.16 mg/ml); “+1.98%” in data set [8] (ASS 0.32 mg/ml); “+9.75%” in data set [8] (ASS 0.48 mg/ml); −3.81% in data set [8] (ASS 0.64 mg/ml); −3.39% in data set [8] (ASS 0.80 mg/ml). The “Elastin (μg/ml) (Diff. from baseline)” value in data set [8] (ASS 0.16 mg/ml) is -0.11 µg/mL; in data set [8] (ASS 0.32 mg/ml), “+0.07 μg/ml”; in data set [8] (ASS 0.48 mg/ml), “+0.46 μg/ml”; in data set [8] (ASS 0.64 mg/ml), -0.18 µg/mL; in data set [8] (ASS 0.80 mg/ml), “+0.16 μg/ml”. For the same compound, the “Elastin (μg/ml) (Mean ± st. dev.)” value in data set [8] (ASS 0.16 mg/ml) is 4.61 ± 0.41 µg/mL; in data set [8] (ASS 0.32 mg/ml), 4.79 ± 0.44 µg/mL; in data set [8] (ASS 0.48 mg/ml), 5.18 ± 0.36 µg/mL; in data set [8] (ASS 0.64 mg/ml), 4.54 ± 0.47 µg/mL; in data set [8] (ASS 0.80 mg/ml), 4.83 ± 0.30 µg/mL. Moreover, the “effect on elastin expression (in words)” value in data set [8] (ASS alone 0.16-0.80 mg/ml) is given as “incapable of exerting any effect, either stimulatory or inhibitory”.

The record behind these values is US20100028395A1, “COMPOSITIONS CONTAINING N-ACETYLGLUCOSAMINE FOR USE IN DERMO-COSMETOLOGY AND AESTHETIC MEDICINE” (ROTTAPHARM S.P.A., priority 2007, published 2010).
